# According to patent US20250049693A1, “METHOD FOR AMPLIFYING EXPRESSION OF TRANSPORTER-RELATED GENE IN EPIDERMAL CELLS” (J-Network, Inc., priority 2023, published 2025):
# Experiments:
# [1] = tested on: Normal human epidermal keratinocytes (NHEKs); assay: Evaluation of cellular uptake action of vitamin C: hydroquinone cytotoxicity, neutral red assay; type: cell-based; conditions: then 400 μM hydroquinone 24 hours
# Method: This evaluation was performed by quantifying the cytotoxicity of hydroquinone (HQ) when a diacylglycerol PEG adduct, vitamin C, and hydroquinone were added to epidermal cells.
# Normal human epidermal keratinocytes (NHEKs) were seeded on a 96-well plate at a cell density of 2.0×10^4 cells/well using HuMedia-KG2 medium and cultured under the conditions of 37° C. and 5% CO: for 24 hours.
# Thereafter, using HuMedia-KB2 medium, a sample to which 50 μM of PEG-23 glycerol distearate (GDS23) was added and a sample to which GDS23 was not added were respectively cultured under the conditions of 37° C. and 5% CO: for 24 hours.
# Subsequently, the samples were washed with PBS (−), and the GDS23-added samples and the GDS23 non-added samples were respectively cultured in the following six media for 24 hours. • HuMedia-KB2 medium containing 0 μM of ascorbic acid (AsA) • HuMedia-KB2 medium containing 1 μM of ascorbic acid (AsA) • HuMedia-KB2 medium containing 5 μM of ascorbic acid (AsA) • HuMedia-KB2 medium containing 10 μM of ascorbic acid (AsA) • HuMedia-KB2 medium containing 50 μM of ascorbic acid (AsA) • HuMedia-KB2 medium containing 100 μM of ascorbic acid (AsA)
# The control (no addition of any of GDS23, AsA, and HQ) was cultured only in HuMedia-KB2 medium.
# [2] = tested on: Normal human epidermal keratinocytes (NHEKs); assay: Evaluation of cellular uptake action of cystine: hydroquinone cytotoxicity, neutral red assay; type: cell-based; conditions: then 400 μM hydroquinone 24 hours
# Method: From the test results of (1) and (2) described above, it was confirmed that the expression of the SLC7A11 genes was enhanced by the application of the diacylglycerol PEG adduct to epidermal cells, and thus the production of the protein, which is the xCT transporter encoded thereby, was enhanced. Therefore, the cellular uptake action of cystine was actually evaluated. This evaluation was performed by quantifying the cytotoxicity of hydroquinone (HQ) when a diacylglycerol PEG adduct, cystine, and hydroquinone were added to epidermal cells.
# Normal human epidermal keratinocytes (NHEKs) were seeded on a 96-well plate at a cell density of 2.0×10^4 cells/well using HuMedia-KG2 medium and cultured under the conditions of 37° C. and 5% CO2 for 24 hours.
# Thereafter, using HuMedia-KB2 medium, a sample to which 50 μM of PEG-23 glycerol distearate (GDS23) was added and a sample to which GDS23 was not added were respectively cultured under the conditions of 37° C. and 5% CO2 for 24 hours.
# Subsequently, the samples were washed with PBS (−), and the GDS23-added samples and the GDS23 non-added samples were respectively cultured in the following three media for 30 hours. The cysteine added to the medium is oxidized in the medium or between cells to be converted into cystine, which is a dimer, and is incorporated into the cells as cystine. • HuMedia-KB2 medium containing 0 μM of cysteine (Cys) • HuMedia-KB2 medium containing 10 μM of cysteine (Cys) • HuMedia-KB2 medium containing 50 μM of cysteine (Cys)
# Further, the cells were washed with PBS (−) and cultured in HuMedia-KB2 medium containing 400 μM of hydroquinone (HQ) for 24 hours.
# The control (no addition of any of GDS23, Cys, and HQ) was cultured only in HuMedia-KB2 medium.
# Thereafter, the cell viability was measured by the neutral red assay. The cell viability was calculated for each of the GDS23-added samples and the GDS23 non-added samples, taking the cell viability of the control as 100%.
# [3] = tested on: ABCC1 gene; assay: Amplification of mRNA expression of ABCC1 gene (quantitative real-time PCR); type: cell-based, human; conditions: NHEKs, corrected with GAPDH, control = 1
# Method: (§1) A test for confirming the amplification of mRNA expression of each transporter-related gene in epidermal cell was performed.
# (§2) Normal human epidermal keratinocytes (NHEKs) were seeded on a 96-well plate at a cell density of 2.0×10^4cells/well using HuMedia-KG2 medium (manufactured by Kurabo Industries Ltd.), and cultured under the conditions of 37° C. and 5% CO2 for 24 hours.
# (§3) Thereafter, a diacylglycerol PEG adduct was added thereto using HuMedia-KB2 medium (manufactured by Kurabo Industries Ltd.), and each was cultured under the conditions of 37° C. and 5% CO2 for a predetermined time. Table 1 represents the target gene, the types of diacylglycerol PEG adduct added, the adding amount, and the culture time. A control (no addition) was also cultured under the same conditions.
# (§4) After the cells were cultured for each predetermined time, RNA was extracted from the cells of each sample and control. The extracted RNA was reverse-transcribed to prepare cDNA, and the mRNA of the target gene was quantified by quantitative real-time PCR expression analysis. […]
# (§5) In the analysis, the mRNA expression level of each target gene was corrected with the value of the expression level of GAPDH, which is an internal standard in the same sample, and the correction value of the sample was calculated as a relative expression level when the correction value of the control was set to 1.
# [4] = tested on: SLC7A11 gene; assay: Amplification of mRNA expression of SLC7A11 gene (quantitative real-time PCR); type: cell-based, human; conditions: NHEKs; 100 μM; culture 24 hr; corrected with GAPDH, control = 1
# Method: as §1, §2, §3, §4, §5
# [5] = tested on: GSR gene; assay: Amplification of mRNA expression of GSR gene (quantitative real-time PCR); type: cell-based, human; conditions: NHEKs, corrected with GAPDH, control = 1
# Method: as §1, §2, §3, §4, §5
# [6] = tested on: SVCT2 gene; assay: Amplification of mRNA expression of SVCT2 gene (quantitative real-time PCR); type: cell-based, human; conditions: NHEKs; 100 μM; culture 30 hr; corrected with GAPDH, control = 1
# Method: as §1, §2, §3, §4, §5
# [7] = tested on: SVCT2 protein; assay: Test for enhanced production of SVCT2 proteins (Western blotting); type: cell-based, human; conditions: NHEKs, 50 μM, 24 hours
# Method: A test for confirming the enhanced production of proteins encoded by the SVCT2 genes was performed using Western blotting.
# Normal human epidermal keratinocytes (NHEKs) were seeded on a 96-well plate at a cell density of 1.0×10^5 cells/well using HuMedia-KG2 medium and cultured under the conditions of 37° C. and 5% CO2 for 24 hours.
# Thereafter, 50 μM of PEG-23 glycerol distearate (GDS23) was added thereto using HuMedia-KB2 medium, and the cells were cultured under the conditions of 37° C. and 5% CO2 for 24 hours. A control (no addition) was cultured only in HuMedia-KB2 medium.
# After culturing, Western blotting was applied. First, proteins were extracted from the cells using […] containing 10% mercaptoethanol. The protein extract solution was subjected to electrophoresis using a polyacrylamide gel, and the proteins were transferred to a membrane by a semi-dry method. The amount of the SVCT2 protein was corrected with the amount of GAPDH, which is an internal standard in the same sample, and the correction value of the sample was calculated with the correction value of the control set to 1.
compound,measurement,setting,value
"O=C1O[C@H]([C@@H](O)CO)C(O)=C1O [ascorbic acid, reference compound]",effect of ascorbic acid on the cytotoxicity caused by hydroquinone (cell viability),"[1]; GDS23 non-added samples, ascorbic acid 5 to 100 μM, 24 hours, versus ascorbic acid non-added sample",almost no effect
"N[C@@H](CS)C(=O)O [cysteine, reference compound]",effect of cysteine (cystine) on the cytotoxicity caused by hydroquinone (cell viability),"[2]; GDS23 non-added samples, cysteine 10 μM and 50 μM, 30 hours, versus cysteine non-added sample",almost no effect
PEG-12 glycerol dimyristate [GDM12],relative expression level of ABCC1 gene,"[3]; 100 μM, culture 30 hr",about 1.3 times that of the control
same,relative expression level of SLC7A11 gene,[4],about 1.4 times that of the control
same,relative expression level of GSR gene,"[5]; 100 μM, culture 30 hr",about 1.5 times that of the control
same,relative expression level of SVCT2 gene,[6],about 1.4 times that of the control
PEG-23 glycerol distearate [GDS23],relative expression level of ABCC1 gene,"[3]; 50 μM, culture 24 hr",about 2.1 times that of the control
same,"cytotoxicity by hydroquinone (cell viability), GDS23-added versus GDS23 non-added samples","[1]; 50 μM GDS23 24 hours, ascorbic acid 0-100 μM 24 hours",significantly reduced
same,cell viability of ascorbic acid-added samples versus ascorbic acid non-added sample among GDS23-added samples,"[1]; 50 μM GDS23 24 hours, ascorbic acid 1-100 μM 24 hours",higher
same,relative expression level of GSR gene,"[5]; 50 μM, culture 24 hr",about 1.8 times that of the control
same,"cytotoxicity by hydroquinone (cell viability), GDS23-added versus GDS23 non-added samples","[2]; 50 μM GDS23 24 hours, cysteine 0-50 μM 30 hours",significantly reduced
same,cell viability of cysteine-added samples versus cysteine non-added sample among GDS23-added samples,"[2]; 50 μM GDS23 24 hours, cysteine 10 or 50 μM 30 hours",higher
same,SVCT2 protein band (Western blot image),[7]; FIG. 11,increase
same,amount of the SVCT2 protein,"[7]; Western blot, corrected with GAPDH, control = 1",about 1.4 times that in the control sample
